Assay results from paper PMC7544826 (Communications Biology, 2020).
“Also recorded” adds a separate entry of the source.

Columns and labels:
Notum [1] = target: T1, Notum (Homo sapiens, UniProt Q6P988, C330S); assay: Thermal shift assay (SYPRO Orange) of Notum; settings: compound 500 µM; for Thermoflour melting curve fluorescence of Notum: Fig 2c
T1 sequence (Q6P988 81-451 C330S): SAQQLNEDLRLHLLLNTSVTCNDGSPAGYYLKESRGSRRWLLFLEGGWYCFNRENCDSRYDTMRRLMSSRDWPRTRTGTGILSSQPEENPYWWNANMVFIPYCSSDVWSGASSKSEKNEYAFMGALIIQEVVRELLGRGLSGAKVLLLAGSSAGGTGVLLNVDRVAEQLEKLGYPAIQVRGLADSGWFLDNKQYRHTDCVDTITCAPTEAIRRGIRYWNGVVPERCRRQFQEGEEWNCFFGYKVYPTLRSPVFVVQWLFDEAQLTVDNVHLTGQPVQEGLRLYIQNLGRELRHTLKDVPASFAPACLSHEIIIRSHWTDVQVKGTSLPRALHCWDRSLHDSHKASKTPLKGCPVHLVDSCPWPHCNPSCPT
Method: Reference wells, i.e. solutions without compounds were used to compare the melting temperature (Tm). The experiments were performed in triplicate.

Notum [2] = target: T1, Notum; assay: Notum activity assay with OPTS as substrate; assay type: biochemical; design: The human Notum enzyme core comprising amino acids S81–T451 with a C330S mutation; made in house; dialyzed conditioned medium used without purification; settings: result in words
Method: OPTS is a common lipase substrate with an octanoyl lipid linked to a fluorescent moiety. It is not a natural Notum substrate; however, it can be used to quantify the enzymatic activity of purified Notum protein[23],[25],[28]. […] The fluorescent lipase substrate OPTS was dissolved in water at a concentration of 20 µM. […] The inhibition curves were fitted with a one-site model with GraphPad Prism 8 software.

Notum [3] = target: T1, Notum; assay: SPR equilibrium binding to biotinylated Notum on streptavidin chip; design: The human Notum enzyme core comprising amino acids S81–T451 with a C330S mutation; made in house; dialyzed conditioned medium used without purification; settings: result in words
Method: The human Notum core sequence was cloned in a pHL-Avi3 vector[49] and co-transfected with the pDisplay_BirA-ER plasmid[50] into HEK293T cells with the media supplemented with 20 µM biotin. This procedure allows in vivo biotinylation to occur, and the dialyzed conditioned medium was directly used for SA sensor chip immobilization without protein purification. […] Approximately 2500 resonance units (RU) of the biotinylated Notum was coupled onto the chip. […] The response was plotted versus the concentration of the analytes and fitted by nonlinear regression to a one-site saturation binding model (GraphPad Prism 8).

In the case of 1,5-dimethylxanthine [theobromine], the “Thermoflour melting curve fluorescence of Notum” value (Notum [1]; Temperature 24.5) is reported as 1404.51, the “Thermoflour melting curve fluorescence of Notum” value (Notum [1]; Temperature 25.5) is reported as 1219.92 and the “Thermoflour melting curve fluorescence of Notum” value (Notum [1]; Temperature 26.5) is reported as 1040.89. For the same substance, the “Thermoflour melting curve fluorescence of Notum” value (Notum [1]; Temperature 27.5) was 912.702, the “Thermoflour melting curve fluorescence of Notum” value (Notum [1]; Temperature 28.5) was 812.506 and the “Thermoflour melting curve fluorescence of Notum” value (Notum [1]; Temperature 29.5) was 748.934. The “Thermoflour melting curve fluorescence of Notum” value (Notum [1]; Temperature 30.5) was 702.942, the “Thermoflour melting curve fluorescence of Notum” value (Notum [1]; Temperature 31.5) was 648.106 and the “Thermoflour melting curve fluorescence of Notum” value (Notum [1]; Temperature 32.5) was 580.173. The “Thermoflour melting curve fluorescence of Notum” value (Notum [1]; Temperature 33.5) was 507.838, the “Thermoflour melting curve fluorescence of Notum” value (Notum [1]; Temperature 34.5) was 418.887 and the “Thermoflour melting curve fluorescence of Notum” value (Notum [1]; Temperature 35.5) was 274.731. The “Thermoflour melting curve fluorescence of Notum” value (Notum [1]; Temperature 36.5) was 90.4697, the “Thermoflour melting curve fluorescence of Notum” value (Notum [1]; Temperature 37.5) was -139.16 and the “Thermoflour melting curve fluorescence of Notum” value (Notum [1]; Temperature 38.5) was -392.32. For the same substance, the “Thermoflour melting curve fluorescence of Notum” value (Notum [1]; Temperature 39.5) was -608.25, the “Thermoflour melting curve fluorescence of Notum” value (Notum [1]; Temperature 40.5) was -782.991 and the “Thermoflour melting curve fluorescence of Notum” value (Notum [1]; Temperature 41.5) was -908.263. For the same substance, the “Thermoflour melting curve fluorescence of Notum” value (Notum [1]; Temperature 42.5) was -987.266, the “Thermoflour melting curve fluorescence of Notum” value (Notum [1]; Temperature 43.5) was -1014 and the “Thermoflour melting curve fluorescence of Notum” value (Notum [1]; Temperature 44.5) was -973.707. For the same substance, the “Thermoflour melting curve fluorescence of Notum” value (Notum [1]; Temperature 45.5) was -878.635, the “Thermoflour melting curve fluorescence of Notum” value (Notum [1]; Temperature 46.5) was -736.376 and the “Thermoflour melting curve fluorescence of Notum” value (Notum [1]; Temperature 47.5) was -559.758. The “Thermoflour melting curve fluorescence of Notum” value (Notum [1]; Temperature 48.5) was -346.91, the “Thermoflour melting curve fluorescence of Notum” value (Notum [1]; Temperature 49.5) was -78.207 and the “Thermoflour melting curve fluorescence of Notum” value (Notum [1]; Temperature 50.5) was 248.299. The “Thermoflour melting curve fluorescence of Notum” value (Notum [1]; Temperature 51.5) was 600.666, the “Thermoflour melting curve fluorescence of Notum” value (Notum [1]; Temperature 52.5) was 986.098 and the “Thermoflour melting curve fluorescence of Notum” value (Notum [1]; Temperature 53.5) was 1440.99. For the same substance, the “Thermoflour melting curve fluorescence of Notum” value (Notum [1]; Temperature 54.5) was 1961.08, the “Thermoflour melting curve fluorescence of Notum” value (Notum [1]; Temperature 55.5) was 2560.53 and the “Thermoflour melting curve fluorescence of Notum” value (Notum [1]; Temperature 56.5) was 3253.14. For the same substance, the “Thermoflour melting curve fluorescence of Notum” value (Notum [1]; Temperature 57.5) was 4045.69, the “Thermoflour melting curve fluorescence of Notum” value (Notum [1]; Temperature 58.5) was 5053.15 and the “Thermoflour melting curve fluorescence of Notum” value (Notum [1]; Temperature 59.5) was 6367.38. For the same substance, the “Thermoflour melting curve fluorescence of Notum” value (Notum [1]; Temperature 60.5) was 8116.48, the “Thermoflour melting curve fluorescence of Notum” value (Notum [1]; Temperature 61.5) was 10309.5 and the “Thermoflour melting curve fluorescence of Notum” value (Notum [1]; Temperature 62.5) was 12803.5. For the same substance, the “Thermoflour melting curve fluorescence of Notum” value (Notum [1]; Temperature 63.5) was 15345.7, the “Thermoflour melting curve fluorescence of Notum” value (Notum [1]; Temperature 64.5) was 17689.5 and the “Thermoflour melting curve fluorescence of Notum” value (Notum [1]; Temperature 65.5) was 19737.1. The “Thermoflour melting curve fluorescence of Notum” value (Notum [1]; Temperature 66.5) was 21432.6, the “Thermoflour melting curve fluorescence of Notum” value (Notum [1]; Temperature 67.5) was 22887.7 and the “Thermoflour melting curve fluorescence of Notum” value (Notum [1]; Temperature 68.5) was 24216. For the same substance, the “Thermoflour melting curve fluorescence of Notum” value (Notum [1]; Temperature 69.5) was 25446.3, the “Thermoflour melting curve fluorescence of Notum” value (Notum [1]; Temperature 70.5) was 26564.8 and the “Thermoflour melting curve fluorescence of Notum” value (Notum [1]; Temperature 71.5) was 27592.2. For the same substance, the “Thermoflour melting curve fluorescence of Notum” value (Notum [1]; Temperature 72.5) was 28538.2, the “Thermoflour melting curve fluorescence of Notum” value (Notum [1]; Temperature 73.5) was 29406 and the “Thermoflour melting curve fluorescence of Notum” value (Notum [1]; Temperature 74.5) was 30226.8. For the same substance, the “Thermoflour melting curve fluorescence of Notum” value (Notum [1]; Temperature 75.5) was 30994.2, the “Thermoflour melting curve fluorescence of Notum” value (Notum [1]; Temperature 76.5) was 31712.3 and the “Thermoflour melting curve fluorescence of Notum” value (Notum [1]; Temperature 77.5) was 32380.8. For the same substance, the “Thermoflour melting curve fluorescence of Notum” value (Notum [1]; Temperature 78.5) was 33030.5, the “Thermoflour melting curve fluorescence of Notum” value (Notum [1]; Temperature 79.5) was 33697.5 and the “Thermoflour melting curve fluorescence of Notum” value (Notum [1]; Temperature 80.5) was 34352.1. The “Thermoflour melting curve fluorescence of Notum” value (Notum [1]; Temperature 81.5) was 34969.9, the “Thermoflour melting curve fluorescence of Notum” value (Notum [1]; Temperature 82.5) was 35562.2 and the “Thermoflour melting curve fluorescence of Notum” value (Notum [1]; Temperature 83.5) was 36162.5. The “Thermoflour melting curve fluorescence of Notum” value (Notum [1]; Temperature 84.5) was 36803.8, the “Thermoflour melting curve fluorescence of Notum” value (Notum [1]; Temperature 85.5) was 37475.6 and the “Thermoflour melting curve fluorescence of Notum” value (Notum [1]; Temperature 86.5) was 38149.2. The “Thermoflour melting curve fluorescence of Notum” value (Notum [1]; Temperature 87.5) was 38788.7, the “Thermoflour melting curve fluorescence of Notum” value (Notum [1]; Temperature 88.5) was 39302.1 and the “Thermoflour melting curve fluorescence of Notum” value (Notum [1]; Temperature 89.5) was 39800.1. For the same substance, the “Thermoflour melting curve fluorescence of Notum” value (Notum [1]; Temperature 90.5) was 40397.5, the “Thermoflour melting curve fluorescence of Notum” value (Notum [1]; Temperature 91.5) was 41008.7 and the “Thermoflour melting curve fluorescence of Notum” value (Notum [1]; Temperature 92.5) was 41535.5. For the same substance, the “Thermoflour melting curve fluorescence of Notum” value (Notum [1]; Temperature 93.5) was 42071.6, the “Thermoflour melting curve fluorescence of Notum” value (Notum [1]; Temperature 94.5) was 42644 and the “Thermoflour melting curve fluorescence of Notum” value (Notum [1]; Temperature 95.5) was 43225. For the same substance, the “Thermoflour melting curve fluorescence of Notum” value (Notum [1]; Temperature 96.5) was 43850.3, the “Thermoflour melting curve fluorescence of Notum” value (Notum [1]; Temperature 97.5) was 44460.4 and the “Effect on Tm of Notum” value (Notum [1]) was “little effect on the Tm”. The “Melting temperature (Tm) of Notum” value (Notum [1]; Notum without compounds Tm 63.6 °C) was 63.4 °C, the “Notum inhibitory effect in OPTS enzyme assay” value (Notum [2]) was “could not detect obvious Notum inhibitory effects” and the “Binding to Notum (SPR response)” value (Notum [3]) was “did not observe significant responses; also recorded: do not bind Notum”.
